Each structure is given as a SMILES string. In brackets after ≈: the same amount, converted by molar mass.

This passage reports minimal effective concentration and MIC results from patent US11512079B2, “Heterocycle substituted pyridine derivative antifungal agents” (Amplyx Pharmaceuticals, Inc., priority 2017, dated 2022).

Holding throughout (format): cell-based
The test system of test [1] is Rhizomucor pusillus 46342. The test is described as follows: In vitro antifungal assay (Example IX), microdilution broth, MEC. Conditions: minimum effective concentration (shortening of hyphae), 35° C., 40-48 h, RPMI1640. As to the method: (§1) Measurement of antifungal activity: […] Candida albicans 90028, Aspergillus fumigatus MYA3626, Rhizomucor pusillus 46342 and Cryptococcus neoformans […] strains were obtained from American Type Culture Collection (ATCC). […] (A. fumigatus) and 35° C. (R. pusillus). Water containing 1% Tween was directly added to the agar plate and gently agitated to wet and remove the Aspergillus conidia. For R. pusillus, water was added to the surface and gently massaged to wet and remove the spores. For both species, the conidia or spores and mycelial fragments were collected, followed by removal of mycelium, conidiophores and large clumps of conidia/spores. The resulting spore suspension was counted and diluted into RPMI1640 medium to adjust to a final suspension of 1-2×10^4 spores/mL. The suspension was used in the MEC measurement as described below. […] The compounds were weighed and DMSO was added to prepare a 10 mg/mL stock. The solutions were mixed by vortexing and sonication at 37° C. for 5-10 mins. The resulting solutions were sterile filtered using a PTFE filter, and aliquoted (12 μL or as needed) and stored at -20° C. Intermediate compound dilutions were prepared in sterile polypropylene tubes in 100% DMSO. […] This was validated by thorough mixing and reading at 600 nm on a microplate reader. The minimum concentration that led to shortening of hyphae as compared to hyphal growth in DMSO control wells was determined as the minimum effective concentration (MEC) for A. fumigatus and R. pusillus (as read for echinocandins). The use of the MIC and MEC endpoints against yeasts and molds, respectively has been described by Pfaller M A, Duncanson F, Messer S A, Moet G J, Jones […]. Antimicrob Agents Chemother. 2011. 55(11):5155-8. In vitro activity of a novel broad-spectrum antifungal, […], tested against Aspergillus spp. determined by CLSI and EUCAST broth microdilution methods. Results are shown in Table 2, and the letters indicate the following ranges in μg/mL: […]

The test system of test [2] is Aspergillus fumigatus MYA3626. The test is described as above. The following applies: minimum effective concentration (shortening of hyphae), 35° C., 40-48 h, RPMI1640. Here is the method: as §1
Test [3] deals with Candida albicans 90028. The test is described as follows: In vitro antifungal assay (Example IX), microdilution broth, MIC. Conditions: minimum inhibitory concentration (≥50% inhibition), 35° C., 40-48 h, RPMI1640. Here is the method: Measurement of antifungal activity: Antifungal activity of the compounds was evaluated in a microdilution broth assay as per Clinical and Laboratory Standard Institute methodology for yeast (for Candida and Cryptococcus) (1) and molds (for Aspergillus and Rhizomucor) (2). Candida albicans 90028, Aspergillus fumigatus MYA3626, Rhizomucor pusillus 46342 and Cryptococcus neoformans H99 strains were obtained from American Type Culture Collection (ATCC).
Preparation of Fungal Suspension. C. albicans 90028 and C. neoformans H99 strains were streaked from frozen stocks at −80° C. onto Sabouraud Dextrose Agar (SDA) plates. These were allowed to grow for 24 h (C. albicans) and 48 h (C. neoformans) at 35° C. before using them in the assay. 5-6 individual colonies were picked and diluted into sterile water to obtain a fungal suspension. The cell density of the suspension was determined and the culture diluted with RPMI1640 medium to obtain a fungal suspension of 2.5×10^3 cells/mL. The suspension was used in the MIC measurement as described below.
Preparation of Compound Stocks and Intermediate Dilutions: The compounds were weighed and DMSO was added to prepare a 10 mg/mL stock. The solutions were mixed by vortexing and sonication at 37° C. for 5-10 mins. The resulting solutions were sterile filtered using a PTFE filter, and aliquoted (12 μL or as needed) and stored at −20° C. Intermediate compound dilutions were prepared in sterile polypropylene tubes in 100% DMSO. The compound stock solution was first diluted in DMSO to obtain a concentration of […] to 0.19 μg/mL.
MIC/MEC Measurement: 99 μL 1 of the fungal suspension in RPMI1640 prepared as above was added to each well of a 96-well round bottom assay plate. 1 μL of the intermediate compound dilutions (200-0.19 μg/mL) were added to wells of the plate. This led to a 100-fold dilution of the intermediate dilutions resulting in a final compound concentration of 2-0.0019 μg/mL in the plate. 1 μL of DMSO was added to “No drug” control wells. The solutions were mixed by shaking on a plate shaker for 10 mins and plates incubated at 35° C. for 40-48 h (C. albicans, A. fumigatus, R. pusillus) and 72 h (Cryptococcus). […] This was validated by thorough mixing and reading at 600 nm on a microplate reader. The minimum concentration that led to shortening of hyphae as compared to hyphal growth in DMSO control wells was determined as the minimum effective concentration (MEC) for A. fumigatus and R. pusillus (as read for echinocandins). The use of the MIC and MEC endpoints against yeasts and molds, respectively has been described by Pfaller M A, Duncanson F, Messer S A, Moet G J, Jones R N, Castanheira M. Antimicrob Agents Chemother. 2011. 55(11):5155-8. In vitro activity of a novel broad-spectrum antifungal, E1210, tested against Aspergillus spp. determined by CLSI and EUCAST broth microdilution methods. Results are shown in Table 2, and the letters indicate the following ranges in μg/mL: […]

In the case of `Nc1ncccc1-c1cc(Cc2ccc(CNc3cc(F)cc(F)c3)cc2)no1` [Example 167, 3-(3-(4-(((3,5-difluorophenyl)amino)methyl)benzyl)isoxazol-5-yl)pyridin-2-amine], the minimal effective concentration in test [1] fell in the range of 0.1 to 1 µg/mL; in test [2] it was 0.01 to 0.1 µg/mL. This compound showed an MIC in test [3] of 0.1 to 1 µg/mL (≈ 0.255 to 2.55 µM).
For the compound `Nc1ncccc1-c1cc(Cc2ccc(Cn3ncc4ccccc43)cc2)no1` [Example 170, 3-(3-(4-((1H-indazol-1-yl)methyl)benzyl)isoxazol-5-yl)pyridin-2-amine], the minimal effective concentration in test [1] and in test [2] was 0.1 to 1 µg/mL each time. The compound further showed an MIC in test [3] of 0.1 to 1 µg/mL (≈ 0.262 to 2.62 µM).
Take `Nc1ncccc1-c1cc(Cc2ccc(Cn3cc4ccccc4n3)cc2)no1` [Example 171, 3-(3-(4-((2H-indazol-2-yl)methyl)benzyl)isoxazol-5-yl)pyridin-2-amine]: the minimal effective concentration in test [1] and in test [2] was 0.1 to 1 µg/mL each time. In test [3], this compound came in with an MIC of 0.01 to 0.1 µg/mL (≈ 0.0262 to 0.262 µM).
On to `N#Cc1cnn(Cc2ccc(Cc3cc(-c4cccnc4N)on3)cc2)c1` [compound 3, 1-(4-((5-(2-aminopyridin-3-yl)isoxazol-3-yl)methyl)benzyl)-1H-pyrazole-4-carbonitrile], for which the minimal effective concentration was more than 1 µg/mL in test [1] and 0.1 to 1 µg/mL in test [2]. In test [3], this compound yielded an MIC of 0.1 to 1 µg/mL (≈ 0.281 to 2.81 µM).
Consider `Nc1ncccc1-c1cc(Cc2ccc(CNc3ncns3)cc2)no1` [compound 6, N-(4-((5-(2-aminopyridin-3-yl)isoxazol-3-yl)methyl)benzyl)-1,2,4-thiadiazol-5-amine], for which the minimal effective concentration in test [1] and in test [2] was more than 1 µg/mL in each case. For the same compound, the MIC in test [3] was more than 1 µg/mL.
As to `Nc1ncccc1-c1cc(Cc2ccc(CNc3cnc4[nH]ccc4c3)cc2)no1` [compound 7, N-(4-((5-(2-aminopyridin-3-yl)isoxazol-3-yl)methyl)benzyl)-1H-pyrrolo[2,3-b]pyridin-5-amine], the minimal effective concentration is more than 1 µg/mL in test [1] and 0.1 to 1 µg/mL in test [2]. This compound also yielded an MIC in test [3] of 0.1 to 1 µg/mL (≈ 0.252 to 2.52 µM).
`Nc1ncccc1-c1cc(Cc2ccc(Cc3ccc4ncnn4c3)cc2)no1` [compound 13, 3-(3-(4-([1,2,4]triazolo[1,5-a]pyridin-6-ylmethyl)benzyl)isoxazol-5-yl)pyridin-2-amine]: the minimal effective concentration in test [1] is more than 1 µg/mL; in test [2], 0.1 to 1 µg/mL. In test [3], the MIC lay in the range of 0.1 to 1 µg/mL (≈ 0.261 to 2.61 µM).
Regarding `CC(C)Cn1cc(Cc2ccc(Cc3cc(-c4cccnc4N)on3)cc2)cn1` [compound 16, 3-(3-(4-((1-isobutyl-1H-pyrazol-4-yl)methyl)benzyl)isoxazol-5-yl)pyridin-2-amine], the minimal effective concentration in test [1] and in test [2] was 0.1 to 1 µg/mL each time. The MIC in test [3] was 0.1 to 1 µg/mL (≈ 0.258 to 2.58 µM).
For the compound `Nc1ncccc1-c1cc(Cc2ccc(Cc3cncnc3)cc2)no1` [compound 21, 3-(3-(4-(pyrimidin-5-ylmethyl)benzyl)isoxazol-5-yl)pyridin-2-amine], the minimal effective concentration was more than 1 µg/mL in test [1] and 0.1 to 1 µg/mL in test [2]. Also, the MIC in test [3] fell in the range of 0.1 to 1 µg/mL (≈ 0.291 to 2.91 µM).
Turning to `Nc1ncccc1-c1cc(Cc2ccc(COc3cccc4ccccc34)cc2)no1` [compound 24, 3-(3-(4-((naphthalen-1-yloxy)methyl)benzyl)isoxazol-5-yl)pyridin-2-amine], the minimal effective concentration in test [1] and in test [2] was more than 1 µg/mL throughout. The compound also yielded an MIC in test [3] of more than 1 µg/mL.
Turning to `Nc1ncccc1-c1cc(Cc2ccc(COc3ccc(Cl)c4ccccc34)cc2)no1` [compound 25, 3-(3-(4-(((4-chloronaphthalen-1-yl)oxy)methyl)benzyl)isoxazol-5-yl)pyridin-2-amine], the minimal effective concentration in test [1] and in test [2] was more than 1 µg/mL each time. Further, the MIC in test [3] was more than 1 µg/mL.
Consider `Cc1cnc(COc2ccc(Cc3cc(-c4cccnc4N)on3)cc2)nc1` [compound 29, 3-(3-(4-((5-methylpyrimidin-2-yl)methoxy)benzyl)isoxazol-5-yl)pyridin-2-amine], for which the figures for the minimal effective concentration in test [1] and in test [2] were more than 1 µg/mL and 0.1 to 1 µg/mL, respectively. This compound also had an MIC in test [3] of 0.1 to 1 µg/mL (≈ 0.268 to 2.68 µM).
Regarding `Cc1nccc(NCc2ccc(Cc3cc(-c4cccnc4N)on3)cc2)n1` [compound 33, N-(4-((5-(2-aminopyridin-3-yl)isoxazol-3-yl)methyl)benzyl)-2-methylpyrimidin-4-amine], the minimal effective concentration in test [1] and in test [2] was more than 1 µg/mL in each case. Also, the MIC in test [3] was more than 1 µg/mL.
`Nc1ncccc1-c1cc(Cc2ccc(OCC3COC3)nc2)no1` [compound 44, 3-(3-((6-(oxetan-3-ylmethoxy)pyridin-3-yl)methyl)isoxazol-5-yl)pyridin-2-amine]: the minimal effective concentration in test [1] and in test [2] was more than 1 µg/mL in each case. The compound further gave an MIC in test [3] of 0.1 to 1 µg/mL (≈ 0.296 to 2.96 µM).
In the case of `Cn1ccc(COc2ccc(Cc3cc(-c4cccnc4N)on3)cn2)n1` [compound 45, 3-(3-((6-((1-methyl-1H-pyrazol-3-yl)methoxy)pyridin-3-yl)methyl)isoxazol-5-yl)pyridin-2-amine], the figures for the minimal effective concentration in test [1] and in test [2] were more than 1 µg/mL and 0.1 to 1 µg/mL, respectively. The same compound gave an MIC in test [3] of 0.1 to 1 µg/mL (≈ 0.276 to 2.76 µM).
Turning to `Cn1cc(COc2ccc(Cc3cc(-c4cccnc4N)on3)cn2)cn1` [compound 49, 3-(3-((6-((1-methyl-1H-pyrazol-4-yl)methoxy)pyridin-3-yl)methyl)isoxazol-5-yl)pyridin-2-amine], the minimal effective concentration in test [1] and in test [2] was more than 1 µg/mL each time. Further, the MIC in test [3] was more than 1 µg/mL.
As to `Cc1occc1COc1ccc(Cc2cc(-c3cccnc3N)on2)cn1` [compound 52, 3-(3-((6-((2-methylfuran-3-yl)methoxy)pyridin-3-yl)methyl)isoxazol-5-yl)pyridin-2-amine], the results for the minimal effective concentration in test [1] and in test [2] were more than 1 µg/mL and 0.1 to 1 µg/mL, respectively. Besides, the MIC in test [3] was in the range of 0.1 to 1 µg/mL (≈ 0.276 to 2.76 µM).
In the case of `CC(Oc1ccc(Cc2cc(-c3cccnc3N)on2)cn1)c1ccccc1F` (stereo not drawn) [compound 56, 3-(3-((6-(1-(2-fluorophenyl)ethoxy)pyridin-3-yl)methyl)isoxazol-5-yl)pyridin-2-amine], the figures for the minimal effective concentration in test [1] and in test [2] were more than 1 µg/mL and 0.1 to 1 µg/mL, respectively. The same compound showed an MIC in test [3] of 0.1 to 1 µg/mL (≈ 0.256 to 2.56 µM).
As for `Nc1ncccc1-c1cc(Cc2ccc(Nc3cccc(F)c3)nc2)no1` [compound 59, 5-((5-(2-aminopyridin-3-yl)isoxazol-3-yl)methyl)-N-(3-fluorophenyl)pyridin-2-amine], the minimal effective concentration was more than 1 µg/mL in test [1] and 0.1 to 1 µg/mL in test [2]. The compound also came in with an MIC in test [3] of 0.1 to 1 µg/mL (≈ 0.277 to 2.77 µM).
